For the assay, the system named is patients with moderate-to-severe post-surgical (dental) pain. In words: Randomized, double-blind, single-dose, placebo- and comparator-controlled study of pain relief by administered dose. The assay is classed as in vivo, human. The protocol:
A 336-patient, seven treatment arm, randomized, double-blind, single-dose, and placebo- and comparator-controlled, parallel-group study was conducted. Patients were randomly assigned to receive a single dose of either diclofenac sodium solubilized with hydroxypropyl-beta-cyclodextrin (hereinafter “DIC”), ketorolac tromethamine, or placebo.
Bolus IV injectable 2 ml solutions were prepared by solubilizing diclofenac sodium with hydroxypropyl-beta-cyclodextrin. The formulation strengths were as follows: • Formulation: Diclofenac sodium solubilized with hydroxypropyl-β-cyclodextrin • Strengths: 75 mg, 37.5 mg, 18.75 mg, 9.4 mg and 3.75 mg • Dosage: Bolus IV injection (no less than 15 sec) • Batch Number: 063004 (PPS4010) • Manufacturer: Manufactured for Javelin by Precision Pharma • Storage Conditions: Room temperature
Active Control/Comparator: • Formulation: Ketorolac Tromethamine • Strength: 30 mg • Dosage: Bolus IV injection (no less than 15 sec) • Batch Number: 21-430-DK • Manufacturer: Abbott Labs • Storage Conditions: Room temperature
Pain was assessed by each patient at Baseline (0 hour: Visual Analog Scale (VAS) and categorical pain intensity only), at 5, 15, 30 and 45 minutes, and at 1, 1.5, 2, 3, 4, 5, 6, 7, 8, 10, 12 and 24 hours after administration of study medication and immediately prior to the first dose of rescue medication. At each post-dose time period, levels of pain intensity (categorical and VAS) and pain relief (categorical and VAS) was assessed by each patient. […]
The presence of a dose-response was tested with a step-down testing procedure. Total pain relief (TOTPAR), peak pain relief, pain intensity difference (SPID), summed peak reduction in pain intensity difference (SPRID), and patient global evaluation was analyzed with analysis of variance (ANOVA) with treatment, center, and baseline categorical pain intensity as factors. […] Time to onset of perceptible relief and time to onset of meaningful relief was analyzed with survival analysis techniques. […] A 95% confidence interval for each estimated median time to event was calculated. […]

Turning to `O=C(c1ccccc1)c1ccc2n1CCC2C(=O)O` (stereo not drawn) [ketorolac, ketorolac tromethamine], for the setting “30 mg single bolus IV injection (active comparator)”, the “% Maximum Effect (TOTPAR)” value was 100%. Besides, the “TOTPAR (Sum of Pain Relief VAS 0–100 mm ratings 0–6 hours)” value (30 mg single bolus IV injection (active comparator), value (SEM)) is 400.3 (SEM 36). Under “30 milligrams”, the “peak analgesic response compared with that of diclofenac (about 80% pain relief)” value was “Similar”.

The values above are taken from patent US20070232567A1, “Formulations Of Low Dose Non-Steroidal Anti-Inflammatory Drugs And Beta-Cyclodextrin” (priority 2006, published 2007).
